Assay results: patent publication US20110160444A1, “Cloning Transcription Factor Gene OsWOX20 That Regulates The Growth and Development of Monocotyledon's Root and Uses Thereof” (Huazhong Agricultural University, priority 2007, published 2011)

Tests used:
OsWOX20 gene expression = assay: Induced expression of rice endogenous gene OsWOX20 by realtime-PCR; format: in vivo, rice variety Zhonghua No. 11; conditions: 10 μM, roots of seedlings soaked; for Induction of expression of OsWOX20 gene: samples 0-24 h, normalized to actin1; for Time after which level of expression of OsWOX20 began to rise / Time at which level of expression of OsWOX20 reached peak: exogenous auxin
Procedure: The rice variety “Zhonghua No. 11” was used as the research material and treated with auxin, cytokinin, an auxin inhibitor and light at day ten after germination. Auxin treatment was done by soaking the roots of the seedlings with 10 μM IAA (indoleacetic acid) and 10 μM NAA (naphthaleneacetic acid) and taking samples at 0 h, 0.5 h, 1 h, 2 h, 3 h, 4 h, 6 h, 9 h, 12 h and 24 h. Cytokinin treatment was done by soaking the roots of the seedlings with 10 μM 6-BA (6-benzylaminopurine) and taking samples at 0 h, 0.5 h, 1 h, 2 h, 3 h, 4 h, 6 h, 9 h, 12 h and 24 h. Auxin inhibitor NPA (N-1-naphthylphthalamic acid) treatment was performed by soaking the roots of the seedlings in 1 μM NPA solution and taking samples at 0 h, 0.5 h, 1 h, 2 h, 3 h, 4 h, 6 h, 9 h, 12 h and 24 h. Light treatment was carried out by allowing the seeds of rice variety “Zhonghua No. 11” to germinate in dark, then placing the seedlings which have germinated for 5 days in dark under light for growth, and sampling at 1 h, 2 h, 4 h, 8 h and 12 h after light illumination. Total RNAs were extracted from whole plants (Trizol reagent, purchased from Invitrogen) and reverse transcribed according to the method described in Example 4. The reverse transcription product was subjected to quantitative PCR in a reaction system of 25 μl containing 1.5 μl of reverse transcription product, 0.25 μM of each of left and right primers and 12.5 μl of SYBR Green mixture (Applied Biosystems). The PCR reaction was performed on a 7500 real-time quantitative PCR amplifier (Applied Biosystems) according to the protocol described in the manufacturer's manual provided by Applied Biosystems, with rice actin1 gene as the internal reference of the reaction. All primers were annealed at 58° C. and reaction was performed for 40 cycles. Each sample was assayed in triplicate and normalized to the level of expression of actin1. […] The OsWOX20 primers used in the quantitative PCR were: […]

[1] = test system: transgenic plants (OsWOX20 overexpression lines 1-3); assay: Effect of auxin inhibitor (NPA) on root length and numbers of crown and lateral roots, OsWOX20 transgenic plants; format: in vivo, rice; conditions: for Length of roots / Number of crown roots / Number of lateral roots: treated with 10^-6 mol/L NPA
Source text: (§1) 2) In order to compare the root system of transgenic OWOX20 lines with increased number of roots to that of wild-type lines, we collected seeds from five transgenic OWOX20 lines after the seeds were completely ripe and allowed the seeds to germinate to investigate growth of the roots.

wild-type plants = assay: Effect of auxin inhibitor (NPA) on root length and numbers of crown and lateral roots, wild-type plants; format: in vivo, rice; conditions: treated with 10^-6 mol/L NPA
Source text: as §1

c1ccc(CNc2ncnc3nc[nH]c23)cc1 [6-BA, 6-benzylaminopurine]
Induction of expression of OsWOX20 gene (OsWOX20 gene expression): can be induced

O=C(O)Cc1c[nH]c2ccccc12 [IAA, indoleacetic acid]
Induction of expression of OsWOX20 gene (OsWOX20 gene expression): can be induced | Time after which level of expression of OsWOX20 began to rise (OsWOX20 gene expression): 30 min | Time at which level of expression of OsWOX20 reached peak (OsWOX20 gene expression): about 1 hour

O=C(O)Cc1cccc2ccccc12 [NAA, naphthaleneacetic acid]
Time after which level of expression of OsWOX20 began to rise (OsWOX20 gene expression): 30 min | Time at which level of expression of OsWOX20 reached peak (OsWOX20 gene expression): about 1 hour

O=C(O)c1ccccc1C(=O)Nc1cccc2ccccc12 [NPA, N-1-naphthylphthalamic acid]
Growth of the roots ([1]; seeds from lines having increased number of roots, 10^-6 mol/L NPA): markedly inhibited | Length of roots ([1]; transgenic Line 1+): 1.1 ± 0.3 cm | Number of crown roots ([1]; transgenic Line 1+): 3.0 ± 2.7 | Number of lateral roots ([1]; transgenic Line 1+): 0 | Length of roots ([1]; transgenic Line 2+): 1.3 ± 0.6 cm | Number of crown roots ([1]; transgenic Line 2+): 1.7 ± 0.6 | Number of lateral roots ([1]; transgenic Line 2+): 0 | Length of roots ([1]; transgenic Line 3+): 1.0 ± 0.6 cm | Number of crown roots ([1]; transgenic Line 3+): 3.0 ± 1.0 | Number of lateral roots ([1]; transgenic Line 3+): 0 | Numbers and length of crown roots and lateral roots versus untreated plant lines ([1]; transgenic plant lines in the presence of NPA): significantly decreased | Length of roots (wild-type plants): 4.8 ± 0.5 cm | Number of crown roots (wild-type plants): 3 ± 0 | Number of lateral roots (wild-type plants): 6.4 ± 2.8
